The values below are quoted from earlier work in patent US5043107A, “Preparation small unilamellar vesicles including polyene antifungal antibiotics” (Vestar Research, Inc., priority 1989, dated 1991).

The conditions of data set [1]: in vivo.
The conditions of data set [2]: Tremblay et al.
For data set [3] the following is noted: mammals; clinical use at therapeutic dose levels.

As to liposomal Amphotericin B, the host toxicity result in data set [1] was “decreased host toxicity”. Take `C[C@@H]1[C@H](O)[C@@H](C)/C=C/C=C/C=C/C=C/C=C/C=C/C=C/[C@H](O[C@@H]2O[C@H](C)[C@@H](O)[C@H](N)[C@@H]2O)C[C@@H]2O[C@](O)(C[C@@H](O)C[C@@H](O)[C@H](O)CC[C@@H](O)C[C@@H](O)CC(=O)O[C@H]1C)C[C@H](O)[C@H]2C(=O)O` [Amphotericin B, amphotericin B]: in data set [2], the “acute 50% lethal dose (LD50)” value is 2.3 mg/kg. Also, the toxicity result in data set [3] was “acute hemolytic crisis and eventual kidney failure”.
